# Data: PMC8880268, “Magnolol and Luteolin Inhibition of α-Glucosidase Activity: Kinetics and Type of Interaction Detected by In Vitro and In Silico Studies” (Pharmaceuticals, 2022)
# Values joined by “and” are separate entries in the source; they are usually repeats but may differ in a detail not shown here. Equal entries are not always repeated. “Also recorded” adds a separate entry of the source. Where two headings read alike, the source gives them in different places.
# What was measured:
# [1] = molecular target: T1, α-glucosidase (Saccharomyces cerevisiae, UniProt P38158); experiment: Fluorescence quenching analysis and thermodynamic parameters; format: binding; conditions: for Ksv (Stern–Volmer quenching constant): pH 6.8, α-glucosidase 0.35 µM; for Kd: read-out: Ka (binding constant) (converted)
# T1 construct: purchased Merck KGaA, Darmstadt, Germany
# T1 sequence (P38158 whole entry): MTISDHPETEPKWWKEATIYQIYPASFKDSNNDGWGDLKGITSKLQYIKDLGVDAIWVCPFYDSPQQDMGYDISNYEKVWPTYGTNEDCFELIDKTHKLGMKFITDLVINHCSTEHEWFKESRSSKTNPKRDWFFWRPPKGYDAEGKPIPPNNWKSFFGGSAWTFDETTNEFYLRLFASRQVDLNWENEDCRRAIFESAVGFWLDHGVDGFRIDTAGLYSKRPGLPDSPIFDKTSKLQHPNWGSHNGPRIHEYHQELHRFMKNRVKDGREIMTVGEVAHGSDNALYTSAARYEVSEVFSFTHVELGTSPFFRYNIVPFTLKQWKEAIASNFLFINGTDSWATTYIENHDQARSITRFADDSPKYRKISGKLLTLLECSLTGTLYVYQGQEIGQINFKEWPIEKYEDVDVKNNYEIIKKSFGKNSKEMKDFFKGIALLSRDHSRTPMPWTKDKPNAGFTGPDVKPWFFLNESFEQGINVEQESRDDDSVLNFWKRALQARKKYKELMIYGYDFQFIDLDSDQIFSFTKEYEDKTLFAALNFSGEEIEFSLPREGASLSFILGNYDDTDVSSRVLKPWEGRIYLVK
# Experimental: The interaction of inhibitors with α-glucosidase was studied using the fluorescence quenching method. […] Measurements were made in the emission range of 300–450 nm, with an excitation of 280 nm, after 10 min of stabilization. The fluorescent spectra of α-glucosidase (0.35 µM) and each inhibitor (0–1.0 µM) were carried out at three different temperatures (298, 304, and 310 K) and the bandwidths were set at 5 nm for both emission and excitation slits. For each sample, three fluorescence spectra were acquired, and the blank was subtracted. The compound quenching mechanism was assessed using the Stern–Volmer equation: F0 / F = 1 + Ksv[Q] = 1 + Kq^.τo[Q], where F0 and F are the fluorescence measure in absence and in presence of different concentrations of quencher, respectively; Ksv is the Stern–Volmer quenching constant; Kq is the coefficient of quencher rate coefficient; τ0 is the life time of the excited state; and [Q] is the concentration of the quencher.
# Further elaboration of the equilibrium within the free and bound molecules can be achieved through the analysis of the fluorescence emission data utilizing the following equation: log (F0 − F) / F = log Ka + n log [Q], which obtains the binding constant (Ka) and the number of binding sites per protein (n) for the enzyme-inhibitor system.
# Thermodynamic spontaneity is an important factor in the study of protein-ligand interaction. A system tends not only toward a lower energy state (enthalpy, ΔH), but also according to a state of disorder (entropy, ΔS). Thermodynamic parameters were obtained according to the Van ’t Hoff equation and the plot of “log Ka vs. 1/T”. The trade-off between enthalpy (ΔH°) and entropy (ΔS°) is used to obtain the standard free energy variation (ΔG°).
# [2] = molecular target: T1, α-glucosidase; experiment: Kinetic analysis of yeast α-glucosidase inhibition (Michaelis–Menten and Lineweaver–Burk plots); format: biochemical; conditions: for Inhibitor Potency (relative to acarbose): from Ki values; for Vmax of α-glucosidase: converted using the Lambert–Beer relationship
# Experimental: The type of enzyme inhibition exerted by inhibitors was evaluated from kinetic studies using different substrate concentrations (0.25–2.5 mM pNPG) applying Michaelis–Menten and Lineweaver–Burk plots. Inhibition constants (Ki) were determined by plots of the Y-intercept of the Lineweaver–Burk plot vs. inhibitor concentration.
# [3] = molecular target: T1, α-glucosidase; design: method as in PMID 24333230; conditions: ref 17; cited from earlier work
# [4] = molecular target: T1, α-glucosidase; experiment: Inactivation kinetics, time course of α-glucosidase activity; format: biochemical; conditions: enzyme 0.075 µM, pNPG 2 mM
# Experimental: The enzyme and substrate concentrations were 0.075 µM and 2 mM, respectively.
# [5] = molecular target: T1, α-glucosidase; experiment: Synchronous fluorescence spectra; conditions: pH 6.8, 298 K
# From the text: The application of this method allows the identification of conformational changes in proteins according to the spectroscopic behavior of the tyrosine and tryptophan residues. Synchronous fluorescence spectra were collected in the emission range of 260–320 nm. The difference between excitation and emission wavelength (Δλ) was established at 15 nm (tyrosine residues) or at 60 nm (tryptophan residues).
# [6] = tested on: α-glucosidase; conditions: cited from earlier work
# [7] = molecular target: T1, α-glucosidase; experiment: Yeast α-glucosidase inhibitory assay (pNPG substrate, absorbance 405 nm); format: biochemical; conditions: for IC50: 2 mM pNPG
# Experimental: α-Glucosidase inhibitory activity was determined according to a previous method. Briefly, 0.1 mM PBS (pH 6.8) was used to dissolve α-glucosidase and pNPG. In detail, 80 μL of PBS or 80 μL of test sample were added to 96-well plates. Successively, 20 μL of enzyme (0.025–0.125 µM) were added to each well. Magnolol (10–100 μM) and luteolin (5–50 μM) were prepared in DMSO (<1% v/v). […] Each sample was incubated with α-glucosidase for 10 min at 37 °C. The reaction started by adding 200 μL of pNPG (2 mM). The absorbance values were detected at 405 nm for 60 min, using a PerkinElmer Victor Nivo microplate spectrophotometer (Waltham, MA, USA). The α-glucosidase activity in the absence of inhibitors was defined as 100%. The half-maximal inhibitory concentration (IC50) was estimated by plot of relative enzymatic activity vs. inhibitor concentration.
# [8] = 298–310 K, Van ’t Hoff equation
smiles,measurement,setting,value
"O=c1cc(-c2ccc(O)c(O)c2)oc2cc(O)cc(O)c12 [Luteolin, 3’,4’,5,7-tetrahydroxyflavone]",Kq (bimolecular quenching constant),[1]; 298 K,23.22 ± 0.159 10^13 M^−1 s^−1
same,n (number of binding sites),[1]; 298 K,1.10
same,ΔG° (free energy change),"[1]; 298 K, Van ’t Hoff equation",-0.547 kcal/mol
same,Ksv (Stern–Volmer quenching constant),[1]; 298 K,23.22 ± 0.16 10^5 M^−1
same,Kd,[1]; 298 K,0.402 µM
same,ΔH° (enthalpy change),[1]; [8],-2.18 kcal/mol
same,∆S° (entropy change),[1]; [8],−22.95 J mol^−1K^−1
same,Kq (bimolecular quenching constant),[1]; 304 K,21.73 ± 0.141 10^13 M^−1 s^−1
same,n (number of binding sites),[1]; 304 K,1.28
same,ΔG° (free energy change),"[1]; 304 K, Van ’t Hoff equation",-0.514 kcal/mol
same,Ksv (Stern–Volmer quenching constant),[1]; 304 K,21.73 ± 0.14 10^5 M^−1
same,Kd,[1]; 304 K,0.417 µM
same,Kq (bimolecular quenching constant),[1]; 310 K,18.68 ± 0.120 10^13 M^−1 s^−1
same,n (number of binding sites),[1]; 310 K,1.34
same,ΔG° (free energy change),"[1]; 310 K, Van ’t Hoff equation",-0.48 kcal/mol
same,Ksv (Stern–Volmer quenching constant),[1]; 310 K,18.68 ± 0.12 10^5 M^−1
same,Kd,[1]; 310 K,0.464 µM
same,fluorescence quenching mechanism,[1]; based on Ksv and Kq values,static quenching mechanism
same,number of binding sites,[1]; no temperature stated,approximately 1
same,Ki’ (binding constant of the inhibitor to the substrate-enzyme complex),[2]; 0.075 µM α-glucosidase,35.4 µM
same,Ki,"[2]; 0.075 µM α-glucosidase, secondary plots of slope versus [I], read-out: Ki (binding constant of the inhibitor to the free enzyme)",34.2 µM
same,type of inhibition,[2]; Michaelis–Menten and Lineweaver–Burk plots,non-competitive inhibition; also recorded: non-competitive reversible inhibitor
same,Inhibitor Potency (relative to acarbose),[2],10.4
same,Inhibitor Potency (relative to acarbose),[2]; listed as luteolin,≥ 10
same,Kcat of α-glucosidase,"[2]; inhibitor 5 µM, 0.075 µM α-glucosidase",2.95 ± 0.12 s⁻¹
same,Kcat of α-glucosidase,"[2]; inhibitor 10 µM, 0.075 µM α-glucosidase",2.65 ± 0.13 s⁻¹
same,Kcat of α-glucosidase,"[2]; inhibitor 25 µM, 0.075 µM α-glucosidase",2.02 ± 0.12 s⁻¹
same,Vmax of α-glucosidase,[2]; inhibitor 25 µM,9.10 ± 0.50 µM/min
same,Kcat of α-glucosidase,"[2]; inhibitor 40 µM, 0.075 µM α-glucosidase",1.78 ± 0.12 s⁻¹
same,Vmax of α-glucosidase,[2]; inhibitor 40 µM,8.00 ± 0.50 µM/min
same,Kcat of α-glucosidase,"[2]; inhibitor 50 µM, 0.075 µM α-glucosidase",1.41 ± 0.11 s⁻¹
same,Vmax of α-glucosidase,[2]; inhibitor 50 µM,6.34 ± 0.60 µM/min
same,distance between inhibitor and α-glucosidase,[3],4.56 nm
same,Inactivation rate constant K,[4]; inhibitor 5 µM,2.67 ± 0.08 10^−4 s^−1
same,Inactivation rate constant K,[4]; inhibitor 10 µM,2.78 ± 0.08 10^−4 s^−1
same,Inactivation rate constant K,[4]; inhibitor 25 µM,2.81 ± 0.03 10^−4 s^−1
same,Inactivation rate constant K,[4]; inhibitor 40 µM,2.82 ± 0.04 10^−4 s^−1
same,Inactivation rate constant K,[4]; inhibitor 50 µM,2.84 ± 0.01 10^−4 s^−1
same,shift of synchronous fluorescence maximum,[5]; ∆λ = 15 nm (tyrosine residues),blue shift from 286 to 283
same,shift of synchronous fluorescence maximum,[5]; ∆λ = 60 nm (tryptophan residues),no modification
same,times more potent than acarbose,"[6]; first of 'respectively', from literature IC50 values ref 18",13 times
same,Ki,[6]; ref 4,29 µM and 38 µM
same,IC50,[6]; ref 6,46 µM
same,Ki,[6]; ref 17,140 µM
same,IC50,[6]; ref 18,13.1 µM
same,times more potent than acarbose,"[6]; second of 'respectively', from literature IC50 values ref 6",17 times
same,reversibility of inhibition,[7]; plots v vs. [α-glucosidase] at different inhibitor concentrations,reversible inhibition
same,IC50,"[7]; α-glucosidase 0.025 × 10^−6 M, read-out: IC50",14 ± 10.5 µM
same,IC50,"[7]; α-glucosidase 0.05 × 10^−6 M, read-out: IC50",21.6 ± 11.7 µM
same,IC50,"[7]; α-glucosidase 0.05 × 10^−6 M, read-out: −Log IC50 (converted)",21.9 µM
same,IC50,"[7]; α-glucosidase 0.075 × 10^−6 M, read-out: IC50",32.3 ± 11.7 µM
same,IC50,"[7]; α-glucosidase 0.125 × 10^−6 M, read-out: IC50",59.4 ± 12.3 µM
